These results are taken from PMC12024912, “Druggability Studies of Benzene Sulfonamide Substituted Diarylamide (E3) as a Novel Diuretic” (Biomedicines, 2025).

Data set [1] concerns the target T1, UT-B (Homo sapiens, UniProt Q13336).
T1 construct: endogenous in cells; host or cells: erythrocytes from healthy adult male volunteers
T1 sequence (Q13336 1-389): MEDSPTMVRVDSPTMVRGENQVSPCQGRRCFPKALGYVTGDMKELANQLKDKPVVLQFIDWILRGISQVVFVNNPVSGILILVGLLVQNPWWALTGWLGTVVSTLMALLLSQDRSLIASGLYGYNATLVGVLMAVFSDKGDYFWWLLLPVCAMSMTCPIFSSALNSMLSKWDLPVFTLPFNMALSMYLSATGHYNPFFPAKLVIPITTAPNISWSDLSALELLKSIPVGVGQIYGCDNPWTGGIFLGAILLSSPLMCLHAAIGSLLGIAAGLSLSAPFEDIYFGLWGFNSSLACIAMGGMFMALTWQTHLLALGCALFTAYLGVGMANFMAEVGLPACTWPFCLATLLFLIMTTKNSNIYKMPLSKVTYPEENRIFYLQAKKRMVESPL
The data set can be described thus: Erythrocyte lysis assay for UT-B inhibition, human erythrocytes. It counts as cell-based. The procedure: The erythrocyte lysis assay was modified from a method described previously. Erythrocytes obtained from veins were diluted to a hematocrit value of 2% in hyperosmolar PBS containing 1.25 mol/L urea and 5 mmol/L glucose and incubated at r.t. for 2 h. Then, 99 μL erythrocyte suspension from a reservoir was added to each well of a 96-well round-bottom microplate, then 1 μL of the testing compound (500, 125, 31.25, 7.81, 1.95, 0.488, 0.122, 0.031, 0.0076 μmol/L dissolved in DMSO) was added to erythrocyte suspension and shook it up with microoscillator for 1 min. Following 5 min incubation, 20 μL erythrocyte suspension was transferred into 96-well black microplates preloaded with 180 μL isotonic PBS (10 mM, urea-free). Erythrocyte lysis was monitored at 710 nm optical density (OD710) for 6 min, with lysis rates calculated using control values from the same plate as Equation (1):Lysis (%) = 100 × (Aneg − Atest)/(Aneg − Apos)(1) where Atest is the absorbance value from the test well, Aneg is from a negative no-lysis control well, and Apos is from a positive full-lysis control.

Data set [2] concerns the target T2, UT-B (Rattus norvegicus, UniProt P97689).
T2 construct: endogenous in cells; host or cells: erythrocytes from male SD rats
T2 sequence (P97689 1-384): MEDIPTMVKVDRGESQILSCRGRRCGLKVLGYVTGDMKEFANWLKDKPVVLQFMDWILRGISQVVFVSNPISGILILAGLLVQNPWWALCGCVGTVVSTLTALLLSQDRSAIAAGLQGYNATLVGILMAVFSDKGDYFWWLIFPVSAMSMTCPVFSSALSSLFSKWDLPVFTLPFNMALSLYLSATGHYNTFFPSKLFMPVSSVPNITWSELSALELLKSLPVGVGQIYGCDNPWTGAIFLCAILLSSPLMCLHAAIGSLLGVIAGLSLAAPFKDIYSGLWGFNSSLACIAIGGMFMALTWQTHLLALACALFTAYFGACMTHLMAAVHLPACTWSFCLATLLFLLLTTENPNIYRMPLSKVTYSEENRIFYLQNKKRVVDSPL
Briefly: Stopped-flow measurement of erythrocyte urea permeability. It counts as cell-based. As to the method: Erythrocyte urea permeabilities were assessed via stopped-flow light scattering (SX20, Applied Photophysics, Leatherhead, UK) following established protocols. Erythrocyte was acquired from rat blood and suspended in isotonic PBS (hematocrit 0.5%). Then, the erythrocyte was incubated with test compounds for 5 min and quickly mixed with 500 mmol/L urea dissolved in PBS. Following an initial osmotic shrinking phase, the kinetics of cell volume increase due to urea influx were measured by monitoring the time course of 90° scattered light intensity at 530 nm. […] Keep samples and PBS at 4 °C to reduce the influence of free diffusion. To assay reversibility, compounds were added to erythrocytes for 5 min and then washed with PBS 3 times by 2000 r/min centrifugation before stopped-flow measurements. To determine inhibition on urea efflux, erythrocytes were incubated with 500 mmol/L urea in PBS for 2 h, then mixed with PBS without urea.

In a further data set the target is T3, rat UT-B (Rattus norvegicus, UniProt P97689).
T3 construct: expressed in transfected cells
T3 sequence (P97689 1-384): T2 sequence (P97689 1-384)
The data set can be described thus: Transwell assay of UT-B inhibition in UT-B-MDCK cells. It counts as cell-based. The conditions noted are these: read-out: IC50 against UT-B-mediated urea permeability. The procedure:
MDCK cells stably expressing rat UT-A1 or UT-B were cultured in DMEM supplemented with 10% FBS, and the mRNA levels of UT-A1 and UT-B were measured in our previous research. Urea flux was assessed according to previously established methods. MDCK cells (2 × 10^5 cells/cm^2) were grown on 12 mm collagen-coated Costar Transwell inserts (0.4 μm pore size, Corning) for 4 d at 37 °C in the presence of 5% CO2. Once the cells on the apical side formed a tight monolayer (transepithelial resistance 1 kΩ/cm^2), PBS (pH = 7.4, containing 10 μmol/L forskolin) with E3 or DMSO was added to the top (0.25 mL) and bottom (1 mL) compartments, and the cultures were incubated in the absence of urea for 30 min at 37 °C. As UT-B is located in the plasma membrane while UT-A1 resides in the cytoplasm, forskolin was used to stimulate the translocation of UT-A1 from the cytoplasm to the membrane for urea transport. Subsequently, the solution in the bottom compartment was replaced with PBS (pH 7.4, containing 10 μmol/L forskolin and E3 or DMSO) supplemented with 15 mmol/L urea. Apical fluid samples (5 μL) were collected at 0, 1, 3, 5, 10, 15, 20, 30, 40, 50, and 60 min. The samples were subjected to an assay for urea (Urea Colorimetric Assay Kit (Diacetyl Oxime Method), Elabscience, Wuhan, China) according to the kit procedure. Then, the inhibition rate was calculated as described previously.

The nature of data set [3]: Liver homogenate metabolic stability, rat. It counts as in vitro ADME. The procedure: Plasma from mice, rats, rabbits, and humans was obtained from blood after centrifugation at 3000 r/min for 10 min. Simulated gastric fluid (SGF, pH = 1, containing pepsin) and simulated intestinal fluid (SIF, pH = 6.8, containing trypsin) were configured previously in the experiments. SD rats and mice were collected, and after removing the mucus layer from the small intestine and colon, 20 times the volume of liquid bacterial culture medium was added. An intestinal microbiota suspension was obtained after anaerobic cultivation on a shaking table at 37 °C for 12 h. In the aforementioned systems, E3 was added at a final concentration of 1 μmol/L at 37 °C for different incubation times (0, 10, 20, 30, 60, 120, and 240 min). In liver metabolic stability assays, E3 was incubated with liver microsomes or liver homogenate from mice or rats for 60 min at 37 °C. The stop solution, 5 ng/mL tolbutamide (internal standard, IS) in acetonitrile, was added to stop the metabolic process. Post-centrifugation (18,000× g, 10 min, 4 °C), supernatants were subjected to liquid chromatography–tandem mass spectrometry (LC–MS/MS). Analyte-to-IS peak area ratios quantified residual percentages via Equation (2):Remaining% = (E3peak area/ISpeak area at different time)/(E3peak area/ISpeak area at 0 min) × 100%.(2)

The structures appear in SMILES notation. pIC50: −log10 of the molar value.

Regarding `CC(=O)c1ccc(C(=O)Nc2cccc(NS(=O)(=O)c3ccccc3)c2)o1` [Compound E3, 5-acetyl-N-(3-(phenylsulfonamido)phenyl)furan-2-carboxamide], the “maximum inhibition rate, human cells” value at UT-B [1] (erythrocyte lysis assay) is “approximately 100%”. Also, the negative logarithm of the IC50 (pIC50) – broadly, the negative decadic logarithm of the IC50, by convention in mol/L – was 7.60 on UT-B [1] (red blood cell lysis assay, read-out: IC50 for UT-B-promoted urea transport, humans) and 7.24 on rat UT-B. Also, on UT-B [2] (1 μM followed by washout with PBS), the “reversibility of UT-B inhibition” value is “reversible”. On UT-B [2] (stopped-flow light scattering, rat erythrocytes), the “UT-B-mediated urea influx into erythrocytes” value was “dose-dependently inhibit”. In addition, the UT-B-mediated urea efflux entry at UT-B [2] (stopped-flow, erythrocytes preloaded with high urea, mixed with isotonic PBS) is “inhibited UT-B-mediated urea efflux in a dose-dependent manner”. Besides, in data set [3] (calculated with 45 mg/g liver, 40 g liver/kg), the “CLhep, rat liver homogenate” value was 46.4 mL/min/kg. In addition, the share remaining (in general, the share of the starting amount still present when the sample was taken) at 1 h in data set [3] (rat, liver homogenate, 60 min incubation, 37 °C, n=3) was 69%.
